Experimental data from ChEMBL document CHEMBL1201862, “PubChem BioAssay data set” (2004).
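Compound exposure: 48 hours, 5 concentrations, 96-well plates. At the GI50, growth is halved.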 The source made the active and inactive calls. No stated cut-off is given here; in the data, active = GI50 up to about 1.1 µM and inactive = higher.

What was measured:
Test in all cases: inhibition of tumour cell growth, NCI panel, 48 h
[1] = system: EKVX
[2] = system: SF-295
[3] = system: A549
[4] = system: UACC-62
[5] = system: M14
[6] = system: CAKI-1
[7] = system: SW-620
[8] = system: SF-268
[9] = system: COLO 205
[10] = system: SNB-19
[11] = system: ACHN
[12] = system: SK-OV-3
[13] = system: 786-0
[14] = system: LOX IMVI
[15] = system: HL-60
[16] = system: SNB-75
[17] = system: HOP-62

Measured: GI50

COc1cccc(/C=C(\NC(C)=O)c2nc3cc(Cl)ccc3[nH]2)c1
inactive: [1] > 100 µM | [2] > 100 µM | [3] > 100 µM | [4] > 100 µM | [5] > 100 µM | [6] > 100 µM | [7] > 100 µM | [8] > 100 µM | [9] > 100 µM | [10] > 100 µM | [11] > 100 µM | [12] > 100 µM | [13] > 100 µM

Cc1ccc(S(=O)(=O)N(/N=C/C=C/c2ccccc2)c2nnc(-c3ccccc3)c(-c3ccccc3)n2)cc1
inactive: [1] 24.9 µM | [2] 19 µM | [3] 16.9 µM | [4] 26.7 µM | [5] 20.8 µM | [6] 17.9 µM | [14] 21.5 µM | [7] 30.4 µM | [15] 14.9 µM | [16] 22.4 µM | [8] 25.9 µM | [9] 16.9 µM | [10] 71.9 µM | [11] 29.8 µM | [12] 34.5 µM | [13] 20.8 µM | [17] 18.3 µM

O=C(COC(=O)c1cccc2c(=O)c3ccccc3[nH]c12)Nc1ccc(S(=O)(=O)Nc2ncccn2)cc1
inactive: [1] 64.1 µM | [2] 58.9 µM | [3] > 100 µM | [4] 20 µM | [5] 93.1 µM | [6] 79.3 µM | [14] 35.7 µM | [7] 47.2 µM | [15] 30.9 µM | [16] 30 µM | [8] 37 µM | [9] 59.6 µM | [10] 38.8 µM | [11] 36.8 µM | [12] 39.5 µM | [13] 42.2 µM | [17] 41.6 µM

CSc1snc2sc3c(Cl)nnnc3c12
inactive: [1] 19.6 µM | [2] 18 µM | [3] 17.9 µM | [4] 14.2 µM | [5] 12.6 µM | [6] 4.42 µM | [14] 3.12 µM | [7] 3.8 µM | [16] 11.5 µM | [8] 16.9 µM | [9] 10.5 µM | [10] 15.8 µM | [11] 11.1 µM | [12] 17.7 µM | [13] 15.9 µM | [17] 16.1 µM

Cc1ccc(-c2cc(-c3ccco3)c(C#N)c(=O)n2C2OC(OC(=O)c3ccccc3)C(OC(=O)c3ccccc3)C2OC(=O)c2ccccc2)cc1 (configuration not stated)
inactive: [1] > 100 µM | [2] 59 µM | [3] > 100 µM | [4] > 100 µM | [5] 64.4 µM | [6] > 100 µM | [14] > 100 µM | [7] > 100 µM | [16] > 100 µM | [8] 81.3 µM | [9] > 10 µM | [11] > 100 µM | [12] > 100 µM | [13] 81.3 µM | [17] 43 µM

O=C(COc1ccc2c(=O)cc(-c3ccccc3)oc2c1)N1CCN(c2ccccc2)CC1
inactive: [1] 28.4 µM | [2] 52.6 µM | [3] 39.2 µM | [4] 57.9 µM | [5] 76.6 µM | [14] 57.3 µM | [7] 83.8 µM | [15] 15.8 µM | [16] 27.5 µM | [8] 46.2 µM | [9] 37 µM | [10] 36.6 µM | [11] 50.8 µM | [12] > 100 µM | [13] 41 µM | [17] 78.7 µM

CC(=O)/C(=C\c1cccc([N+](=O)[O-])c1)C(=O)Nc1ccccc1C
inactive: [1] > 100 µM | [2] > 100 µM | [3] > 100 µM | [4] 59.2 µM | [5] 95.7 µM | [6] > 100 µM | [14] 60.1 µM | [7] > 100 µM | [15] 20.2 µM | [8] > 100 µM | [10] 94.4 µM | [11] > 100 µM | [12] > 100 µM | [13] > 100 µM | [17] > 100 µM

O=C1OCC(C(=O)c2cccc(O)c2)C1=O (configuration not stated)
inactive: [1] > 100 µM | [2] > 100 µM | [3] > 100 µM | [4] > 100 µM | [5] > 100 µM | [6] > 100 µM | [14] > 100 µM | [7] > 100 µM | [16] > 100 µM | [8] > 100 µM | [9] > 100 µM | [10] > 100 µM | [11] > 100 µM | [12] > 100 µM | [13] > 100 µM | [17] > 100 µM

C=CCC(C(=O)OC)C1(C(=O)OC)c2[nH]c3ccccc3c2CCN1Cc1ccccc1 (configuration not stated)
inactive: [1] > 100 µM | [2] 35.1 µM | [3] 58.9 µM | [4] 74.6 µM | [5] 82.4 µM | [6] 66.8 µM | [7] > 100 µM | [15] 18.2 µM | [16] > 100 µM | [8] > 100 µM | [9] > 100 µM | [10] > 100 µM | [12] 89.9 µM | [13] 19 µM | [17] > 100 µM

CC1(C)C=N[N+]2(C)C3C=CC(CC3)C12 (configuration not stated)
inactive: [1] > 100 µM | [2] > 100 µM | [3] > 100 µM | [4] > 100 µM | [5] > 100 µM | [6] > 100 µM | [14] > 100 µM | [15] > 100 µM | [16] > 100 µM | [8] > 100 µM | [9] > 100 µM | [10] > 100 µM | [11] > 100 µM | [12] > 100 µM | [13] > 100 µM | [17] > 100 µM

O=C1NC(=O)C(C(=O)C(=O)Nc2ccc(Cl)cc2Cl)C(=O)N1
inactive: [1] > 100 µM | [2] > 100 µM | [3] > 100 µM | [4] > 100 µM | [5] > 100 µM | [6] > 100 µM | [7] > 100 µM | [15] > 100 µM | [9] > 100 µM | [10] > 100 µM | [11] > 100 µM | [12] > 100 µM | [13] > 100 µM | [17] > 100 µM

CSc1nc(NC2OC(COC(C)=O)C(OC(C)=O)C(OC(C)=O)C2OC(C)=O)c(/N=C/C=N/c2c(NC3OC(COC(C)=O)C(OC(C)=O)C(OC(C)=O)C3OC(C)=O)nc(SC)[nH]c2=O)c(=O)[nH]1 (configuration not stated)
inactive: [1] > 100 µM | [2] > 100 µM | [3] > 100 µM | [4] > 100 µM | [5] > 100 µM | [14] > 100 µM | [7] > 100 µM | [15] > 100 µM | [16] > 100 µM | [8] > 100 µM | [9] > 100 µM | [10] > 100 µM | [11] > 100 µM | [12] > 100 µM | [13] > 100 µM | [17] > 100 µM

O=C(O)CNc1cc(-c2ccccc2)nc(NCC(=O)O)n1
inactive: [1] > 100 µM | [2] > 100 µM | [3] > 100 µM | [4] > 100 µM | [5] > 100 µM | [6] > 100 µM | [14] > 100 µM | [7] > 100 µM | [15] > 100 µM | [16] > 100 µM | [9] > 100 µM | [10] > 100 µM | [11] > 100 µM | [12] > 100 µM | [13] > 100 µM | [17] > 100 µM

CNCC(=O)Nc1ccc2c(c1)C(=O)c1ccc(NC(=O)CNC)cc1C2=O
inactive: [2] 5.3 µM | [3] 11.2 µM | [4] 10.3 µM | [5] 2.55 µM | [6] 5.65 µM | [14] 1.68 µM | [7] 2.56 µM | [16] 13.6 µM | [9] 2.37 µM | [12] 1.62 µM | [13] 4.42 µM | [17] 2.9 µM

C#Cc1cccc(NC(=O)/C=C\C(=O)O)c1
inactive: [1] > 100 µM | [2] > 100 µM | [3] > 100 µM | [4] > 100 µM | [6] > 100 µM | [7] > 100 µM | [15] > 100 µM | [16] > 100 µM | [8] > 100 µM | [9] > 100 µM | [10] > 100 µM | [11] > 100 µM | [12] > 100 µM | [13] > 100 µM

CC(=O)O[C@]12CCCCCC1C1(O)C(O)CCC[C@H]12 (some centres not stated)
inactive: [1] > 100 µM | [2] > 100 µM | [3] > 100 µM | [4] > 100 µM | [5] > 100 µM | [14] > 100 µM | [7] > 100 µM | [15] > 100 µM | [16] > 100 µM | [8] > 100 µM | [9] > 100 µM | [10] > 100 µM | [11] > 100 µM | [12] > 100 µM | [13] > 100 µM | [17] > 100 µM

C=CC1=C(C)c2cc3[nH]c(cc4nc(cc5[nH]c(cc1n2)c(C)c5CCC(=O)N(CC)CC)C(CCC(=O)N(CC)CC)=C4C)c(C)c3C=C
inactive: [1] > 100 µM | [2] 61.2 µM | [3] > 100 µM | [4] > 100 µM | [5] > 100 µM | [14] > 100 µM | [7] > 100 µM | [15] > 100 µM | [16] 29.4 µM | [11] > 100 µM | [12] > 100 µM | [13] > 100 µM | [17] > 100 µM
